Assay results published in patent US8809391B2, “Agent for treating Parkinson's disease” (OOO “Tomskaya Farmatsevticheskaya Fabrika”, priority 2009, dated 2014).

Experiments:
[1] = Acute toxicity, single intragastric administration, Kerber method; conditions: mouse, in vivo, po; white outbred mice 20-22 g, single intragastric administration, Kerber method
Text: (§1) The acute toxicity of the compound 1a was studied in white outbred mice weighting 20-22 g following single intragastric administration using Kerber method.

[2] = test system: white outbred mice; experiment: as above; conditions: mouse, in vivo
Text: as §1

[3] = test system: MPTP-induced parkinsonism; experiment: Antiparkinson activity in mice after single administration of MPTP (locomotor activity, TruScan); format: in vivo; conditions: for general movement activity (number of movement acts) / movement activity / movement distance / movement speed / number of explored holes / number of rearings / time of exploratory activity: single MPTP 30 mg/kg i.p., 1.5 h after MPTP, 3 min; for antiparkinson activity (in words): mice, single administration of MPTP, doses 10 and/or 20 mg/kg per os as stated in the sentence
Method: (§2) Parkinsonism was induced by single and multiple intraperitoneal administration of MPTP in 30 mg/kg doses in male mice of C57B1/6 strain and Wistar rats.
(§3) Antiparkinson activity of the agents was studied by the degree of hypokinesia and locomotor activity using Truscan apparatus (USA) or by mortality percentage.
(§4) Experiments were carried out in male mice of C57B1/6 strain in groups of 10 mice each. Parkinson syndrome was induced by intraperitoneal administration of 30 mg/kg dose of MPTP, saline was administered to intact control group. The agent was administered per os 15 minutes after the reproduction of Parkinson syndrome. Hypokinesia was evaluated 1.5 hours after MPTP injection by the degree of locomotor activity using TruScan apparatus (USA) during 3 minutes.
as §4, with “agents in 20 mg/kg doses were” for “agent was”
as §4, with “agent in 10 mg/kg and 20 mg/kg doses were” for “agent was”

[4] = test system: MPTP-induced parkinsonism; experiment: Antiparkinson activity in mice after 3 days administration of MPTP (locomotor activity, TruScan); format: in vivo; conditions: for general movement activity (number of movement acts) / movement activity / movement distance / movement speed / number of explored holes / number of rearings / time of exploratory activity: 3 min
Method: as §2, §3
Experiments were carried out in male mice of C57B1/6 strain in groups of 10 mice each. Parkinson syndrome was induced by intraperitoneal administration of 30 mg/kg dose of MPTP during 3 days. The agent ((1R,2R,6S)-1a was administered per os in 20 mg/kg and 30 mg/kg doses 24 hours after the last MPTP injection. Hypokinesia was evaluated 1 hour after the agent administration by the degree of locomotor activity using TruScan apparatus (USA) during 3 minutes.
Experiments were carried out in male mice of C57B1/6 strain in groups of 10 mice each. Parkinson syndrome was induced by intraperitoneal administration of 30 mg/kg dose of MPTP daily during 3 days. Agent (1R,2R,6S)-1b with ee 60% in 20 mg/kg dose was administered per os 24 hours after the last MPTP injection. Hypokinesia was evaluated 1.5 hours after MPTP injection by the degree of locomotor activity using TruScan apparatus (USA) during 3 minutes.

[5] = test system: MPTP-induced parkinsonism; experiment: Antiparkinson activity in mice in 10 days administration of MPTP and the agent (mortality); format: in vivo; conditions: for Mortality, %: C57B1/6 mice, MPTP 30 mg/kg i.p. daily 10 days, day 11
Method: as §3
Experiments were carried out in male mice of C57B1/6 strain in groups of 10 mice each. Parkinson syndrome was induced by intraperitoneal administration of 30 mg/kg dose of MPTP daily during 10 days. The agent ((1R,2R,6S)-1a in 20 mg/kg dose and levodopa (the drug of comparison) in 10 mg/kg dose were administered per os 4 hours after MPTP injection daily during 10 days. The effect was evaluated by the number of surviving animals on the 11 day of the experiment.

[6] = test system: MPTP-induced parkinsonism; experiment: Antiparkinson activity in rats in 30 days administration of MPTP and the agent (locomotor activity, TruScan); format: in vivo; conditions: for general movement activity (number of movement acts) / movement activity / movement distance / movement speed / number of explored holes / number of rearings / time of exploratory activity: Wistar rats, MPTP 30 mg/kg (table; text 40 mg/kg) i.p. daily 30 days, day 30, 3 min
Method: as §2, §3
Experiments were carried out in male Wistar rats in groups of 10 mice each. Parkinson syndrome was induced by intraperitoneal administration of 40 mg/kg dose of MPTP daily during 30 days. Saline was administered to intact control group. The agent ((1R,2R,6S)-1a in 20 mg/kg dose and levodopa (the drug of comparison) in 10 mg/kg dose were administered per os 4 hours after MPTP injection daily during 30 days. Hypokinesia was evaluated on 30 day of experiment by the degree of locomotor activity using TruScan apparatus (USA) during 3 minutes.

[7] = Table 6: C57B1/6 mice, agent 10 mg/kg per os 15 min after
[8] = Table 6: C57B1/6 mice, agent 20 mg/kg per os 15 min after
[9] = Table 7: C57B1/6 mice, MPTP 30 mg/kg i.p. daily 3 days, agent 20 mg/kg per os 24 h after last MPTP
[10] = Table 5: C57B1/6 mice, agents 20 mg/kg per os 15 min after
[11] = C57B1/6 mice, agent 10 mg/kg per os 15 min after
[12] = C57B1/6 mice, agent 20 mg/kg per os 15 min after
[13] = C57B1/6 mice, MPTP 30 mg/kg i.p. 3 days, agent 20 mg/kg per os 24 h after last MPTP, 1 h after agent
[14] = C57B1/6 mice, MPTP 30 mg/kg i.p. 3 days, agent 30 mg/kg per os 24 h after last MPTP, 1 h after agent
[15] = agent 20 mg/kg per os 4 h after MPTP daily
[16] = L-DOPA 10 mg/kg per os 4 h after MPTP daily

In the case of `C=C(C)C1CC=C(C)C(O)C1O` (stereo not drawn) [1a, 3-methyl-6-(1-methylethenyl)cyclohex-3-ene-1,2-diol], the LD50 [1] is reported as 4250 mg/kg and the “acute toxicity (in words)” value [2] is reported as “low toxicity”.

In the case of `C=C(C)[C@@H]1CC=C(C)[C@@H](O)[C@@H]1O` [(1R,2R,6S)-1b with ee 60%, diacetate (1R,2R,6S)-3-methyl-6-(1-methylethenyl)cyclohex-3-ene-1,2-diol], the “general movement activity (number of movement acts)” value (shortened to “general movement activity”) [3, 7] is reported as 69.9 ± 6.7, the movement activity [3, 7] is reported as 51.5 ± 7.5 s and the movement distance [3, 7] is reported as 244.4 ± 4.5 cm. The movement speed [3, 7] was 2.0 ± 0.4 cm/s, the “number of explored holes” value [3, 7] was 3.4 ± 1.1 and the number of rearings [3, 7] was 6.4 ± 1.6. For the same molecule, the “time of exploratory activity” value [3, 7] was 1.3 ± 0.5 s, the “general movement activity” value [3, 8] was 84.8 ± 4.4 and the movement activity [3, 8] was 58.8 ± 4.5 s. For the same molecule, the movement speed [3, 8] was 1.9 ± 0.4 cm/s, the “number of explored holes” value [3, 8] was 3.2 ± 0.5 and the number of rearings [3, 8] was 10.8 ± 1.7. The “time of exploratory activity” value [3, 8] was 2.0 ± 0.3 s, the “general movement activity” value [4, 9] was 83.9 ± 3.5 and the movement activity [4, 9] was 64.1 ± 5.0 s. The movement distance [4, 9] was 310.0 ± 35.6 cm, the movement speed [4, 9] was 2.5 ± 0.3 cm/s and the “number of explored holes” value [4, 9] was 6.0 ± 1.0. For the same molecule, the number of rearings [4, 9] was 10.4 ± 1.5, the “time of exploratory activity” value [4, 9] was 3.2 ± 0.8 s and the “antiparkinson activity (in words)” value ([4]; mice, 3 days administration of MPTP, doses 20 (and 30) mg/kg per os as stated in the sentence) was “remarkable antiparkinson activity”.

For `C=C(C)[C@@H]1CC=C(C)[C@@H](O)[C@@H]1O` [(1R,2R,6S)-1a with ee 94%, (1R,2R,6S)-3-methyl-6-(1-methylethenyl)cyclohex-3-ene-1,2-diol], the “general movement activity” value [3, 10] was 78.6 ± 5.0, the movement activity [3, 10] was 64.0 ± 5.5 s and the movement distance [3, 10] was 332.6 ± 39.6 cm. For the same molecule, the movement speed [3, 10] was 2.7 ± 0.3 cm/s, the “number of explored holes” value [3, 10] was 3.2 ± 0.9 and the number of rearings [3, 10] was 13.1 ± 2.5. For the same molecule, the “time of exploratory activity” value [3, 10] was 1.5 ± 0.4 s.

With `C=C(C)[C@@H]1CC=C(C)[C@@H](O)[C@@H]1O` [(1R,2R,6S)-1a with ee 60%, (1R,2R,6S)-3-methyl-6-(1-methylethenyl)cyclohex-3-ene-1,2-diol] the “general movement activity” value [3, 11] was 77.2 ± 5, the movement activity [3, 11] was 57 ± 5.3 s and the movement distance [3, 11] was 257.3 ± 29.5 cm. The movement speed [3, 11] was 2.1 ± 0.25 cm/s, the “number of explored holes” value [3, 11] was 7.7 ± 1.07 and the number of rearings [3, 11] was 5.8 ± 0.6. For the same molecule, the “time of exploratory activity” value [3, 11] was 3.6 ± 0.7 s, the “general movement activity” value [3, 12] was 80.7 ± 4 and the movement activity [3, 12] was 59 ± 4 s. The movement distance [3, 12] was 276.5 ± 24 cm, the movement speed [3, 12] was 2.25 ± 0.2 cm/s and the “number of explored holes” value [3, 12] was 7.6 ± 1.7. For the same molecule, the number of rearings [3, 12] was 8.5 ± 2, the “time of exploratory activity” value [3, 12] was 4.4 ± 1 s and the “antiparkinson activity (in words)” value [3] was “remarkable antiparkinson activity”. The “general movement activity” value [4, 13] was 81.9 ± 3.7, the movement activity [4, 13] was 70.1 ± 3.9 s and the movement distance [4, 13] was 351.8 ± 26.4 cm. The movement speed [4, 13] was 2.9 ± 0.2 cm/s, the “number of explored holes” value [4, 13] was 8.8 ± 1.0 and the number of rearings [4, 13] was 11.1 ± 0.9. For the same molecule, the “time of exploratory activity” value [4, 13] was 3.9 ± 0.5 s, the “general movement activity” value [4, 14] was 81.8 ± 2.6 and the movement activity [4, 14] was 66.8 ± 3.7 s. The movement distance [4, 14] was 335.5 ± 28.9 cm, the movement speed [4, 14] was 2.7 ± 0.2 cm/s and the “number of explored holes” value [4, 14] was 3.8 ± 0.6. The number of rearings [4, 14] was 13 ± 1.7, the “time of exploratory activity” value [4, 14] was 1.6 ± 0.3 s and the “Mortality, %” value [5, 15] was 10%. The “effect on mortality (in words)” value ([5]; mice, 20 mg/kg, 10 days of administration of the agents and MPTP) was “considerably reduces mortality”, the “comparison with levodopa (in words)” value ([5]; mice, mortality test, agent 20 mg/kg vs levodopa 10 mg/kg) was “as good as the drug of comparison levodopa” and the “general movement activity” value [6, 15] was 81.89 ± 5.5. For the same molecule, the movement activity [6, 15] was 62.56 ± 5.2 s, the movement distance [6, 15] was 305.58 ± 30.38 cm and the movement speed [6, 15] was 2.5 ± 0.25 cm/s. For the same molecule, the “number of explored holes” value [6, 15] was 4.3 ± 0.73, the number of rearings [6, 15] was 10.67 ± 1.18 and the “time of exploratory activity” value [6, 15] was 1.75 ± 0.5 s. The “antiparkinson activity (in words)” value ([6]; rats, 20 mg/kg, 30 days administration of MPTP and the agent) was “remarkable antiparkinson activity” and the “comparison with levodopa (in words)” value ([6]; rats, 30 days, agent 20 mg/kg vs levodopa 10 mg/kg) was “as good as the drug of comparison levodopa”.

With `C=C(C)[C@H]1CC=C(C)[C@H](O)[C@H]1O` [(1S,2S,6R)-1a with ee 97%, (1S,2S,6R)-3-methyl-6-(1-methylethenyl)cyclohex-3-ene-1,2-diol] the “general movement activity” value [3, 10] was 57.9 ± 6.0, the movement activity [3, 10] was 34.9 ± 4.3 s and the movement distance [3, 10] was 147.8 ± 20.3 cm. The movement speed [3, 10] was 1.13 ± 0.15 cm/s, the “number of explored holes” value [3, 10] was 2.5 ± 0.9 and the number of rearings [3, 10] was 4.4 ± 1.4. For the same molecule, the “time of exploratory activity” value [3, 10] was 1.2 ± 0.6 s and the “antiparkinson activity (in words)” value [3] was “remarkable antiparkinson activity”.

In the case of `N[C@@H](Cc1ccc(O)c(O)c1)C(=O)O` [L-DOPA, reference compound], the “Mortality, %” value [5, 16] is reported as 20%, the “general movement activity” value [6, 16] is reported as 86 ± 3.86 and the movement activity [6, 16] is reported as 65.09 ± 2.92 s. For the same molecule, the movement distance [6, 16] was 316.77 ± 16.2 cm, the movement speed [6, 16] was 2.57 ± 0.13 cm/s and the “number of explored holes” value [6, 16] was 4.63 ± 0.56. The number of rearings [6, 16] was 9.63 ± 1.16 and the “time of exploratory activity” value [6, 16] was 1.66 ± 0.25 s.
